The supplement of paper PMC11208160

Assay: recombinant barcode read abundance after kanamycin selection (control-corrected) (log10(CPM+1)); higher = more efficient recombination; sequences stand for … in AGTGCAGAGAAAATCGGCCAGTTTTCTCTGCCTGCAGTCCGCATGCCGT…AGATTTATGCAGCGGACTGCCTTTCTCCCAAAGTGATAAACCGGACAGTATCATGGACCGGTTTTCCCGGTAATCCGTATTTGCAAGGTTGGTTTCACT; site = the 11-nt target
Method in brief: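 Recombination efficiency in this pooled E. coli screen uses counts per million of barcodes at recombinant junctions, averaged and corrected against the control. The reported form is log10(CPM+1). Two replicates were plated on chloramphenicol/ampicillin LB agar as control and two on chloramphenicol/ampicillin/kanamycin with 0.1 mM IPTG.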
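Note: IS621 recombinase and bridge RNA in Escherichia coli cells.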

Sequence	recombinant barcode read abundance (log10)
TCGGTTCCTTGGGTTCTAACCTGTTGCCT (site TAGGTTCCTAG)	0.439
TCGGTTCCTTGGGTTCTAACCTGTTGCCT (site TCGGTTCCTAG)	0.811
TCGTAGACTTGGGTTCTAACCTGTTGCTA (site GGTCGCCCTAC)	0.16
TCGTAGACTTGGGTTCTAACCTGTTGCTA (site TCGTAGACTTA)	0.215
TCGTCACCTTGGGTTCTAACCTGTTGCCT (site ACGTCACCTAG)	0
TCGTCACCTTGGGTTCTAACCTGTTGCCT (site CCGTCACCTAG)	0.332
TCGTCACCTTGGGTTCTAACCTGTTGCCT (site GCGTCACCTAG)	0.139
TCGTCACCTTGGGTTCTAACCTGTTGCCT (site TCGTCACCTAG)	0.348
TCGTCCTCTTGGGTTCTAACCTGTTGCCT (site TCGTCATCTAG)	0.225
TCGTCCTCTTGGGTTCTAACCTGTTGCCT (site TCGTCCTCTAG)	0.323
TCGTGCGCTTGGGTTCTAACCTGTTGCCT (site TCGTGCACTAG)	0.177
TCGTGCGCTTGGGTTCTAACCTGTTGCCT (site TCGTGCCCTAG)	0.087
TCGTGCGCTTGGGTTCTAACCTGTTGCCT (site TCGTGCGCTAG)	0.0883
TCGTGCGCTTGGGTTCTAACCTGTTGCCT (site TCGTGCTCTAG)	0
TCGTGTTCTTGGGTTCTAACCTGTTGCTA (site CCTTGTTCTTA)	0.0623
TCGTGTTCTTGGGTTCTAACCTGTTGCTA (site TCGTGTTCTTA)	0.0576
TCGTTCGCTTGGGTTCTAACCTGTTGCCT (site TCCTTCACTAG)	0.0905
TCGTTCGCTTGGGTTCTAACCTGTTGCCT (site TCGTTCGCTAG)	0.21
TCTAAGTCTTGGGTTCTAACCTGTTGCCC (site TCTAAGTCTAG)	0.132
TCTAAGTCTTGGGTTCTAACCTGTTGCCC (site TCTAAGTCTCG)	0.0902
TCTAAGTCTTGGGTTCTAACCTGTTGCCC (site TCTAAGTCTGG)	0.194
TCTAAGTCTTGGGTTCTAACCTGTTGCCC (site TCTAAGTCTTG)	0.00905

Sequence	recombinant barcode read abundance (log10)
TCTAAGTCTTGGGTTCTAACCTGTTGCCT (site TCTAAGTCTAG)	0.134
TCTAAGTCTTGGGTTCTAACCTGTTGCCT (site TCTAAGTCTCG)	0.132
TCTAAGTCTTGGGTTCTAACCTGTTGCCT (site TCTAAGTCTGG)	0.172
TCTAAGTCTTGGGTTCTAACCTGTTGCCT (site TCTAAGTCTTG)	0.281
TCTAGATCTTGGGTTCTAACCTGTTGCCT (site TCTAGAACTAG)	0.0897
TCTAGATCTTGGGTTCTAACCTGTTGCCT (site TCTAGACCTAG)	0.0764
TCTAGATCTTGGGTTCTAACCTGTTGCCT (site TCTAGAGCTAG)	0.135
TCTAGATCTTGGGTTCTAACCTGTTGCCT (site TCTAGATCTAG)	0.0616
TCTATCCCTTGGGTTCTAACCTGTTGCCT (site TCAATCCCTAG)	0.113
TCTATCCCTTGGGTTCTAACCTGTTGCCT (site TCCATCCCTAG)	0.105
TCTATCCCTTGGGTTCTAACCTGTTGCCT (site TCGATCCCTAG)	0.0408
TCTATCCCTTGGGTTCTAACCTGTTGCCT (site TCTATCCCTAG)	0.203
TCTATGACTTGGGTTCTAACCTGTTGCCT (site TCTATGACTAG)	0.0099
TCTATGACTTGGGTTCTAACCTGTTGCCT (site TCTATGTCTAG)	0.187
TCTCAGCCTTGGGTTCTAACCTGTTGCCT (site TCTCAGCCTAG)	0.453
TCTCAGCCTTGGGTTCTAACCTGTTGCCT (site TCTCCGCCTAG)	0.0825
TCTCAGCCTTGGGTTCTAACCTGTTGCCT (site TCTCGGCCTAG)	0.291
TCTCAGCCTTGGGTTCTAACCTGTTGCCT (site TCTCTGCCTAG)	0.0307
TCTGAAACTTGGGTTCTAACCTGTTGCCT (site TCCGAAACTAT)	0.12
TCTGAAACTTGGGTTCTAACCTGTTGCCT (site TCTGAAACTAG)	0.413
TCTGGGCCTTGGGTTCTAACCTGTTGCTT (site TCTGGGCCTAA)	0.0924
TCTGGGCCTTGGGTTCTAACCTGTTGCTT (site TCTGGGCCTTA)	0.525

Sequence	recombinant barcode read abundance (log10)
TCTGGGGCTTGGGTTCTAACCTGTTGCAG (site TCTGGGGCTCA)	0.686
TCTGGGGCTTGGGTTCTAACCTGTTGCAG (site TCTGGGGCTCC)	0.189
TCTGGGGCTTGGGTTCTAACCTGTTGCAG (site TCTGGGGCTCG)	0.159
TCTGGGGCTTGGGTTCTAACCTGTTGCAG (site TCTGGGGCTCT)	2.15
TCTGTCTCTTGGGTTCTAACCTGTTGCCT (site TCTGTCTCTAG)	2.03
TCTGTCTCTTGGGTTCTAACCTGTTGCCT (site TGTGTCTCTAC)	0.0569
TCTTGGACTTGGGTTCTAACCTGTTGCTA (site TCTTGGACTAA)	0.214
TCTTGGACTTGGGTTCTAACCTGTTGCTA (site TCTTGGACTCA)	0.0354
TCTTGGACTTGGGTTCTAACCTGTTGCTA (site TCTTGGACTGA)	0.0809
TCTTGGACTTGGGTTCTAACCTGTTGCTA (site TCTTGGACTTA)	0.0613
TGAAAGTCTTGGGTTCTAACCTGTTGCCT (site TGAAAGTCTAG)	0.727
TGAAAGTCTTGGGTTCTAACCTGTTGCCT (site TGAACGTCTAG)	0.0267
TGAAAGTCTTGGGTTCTAACCTGTTGCCT (site TGAAGGTCTAG)	0.15
TGAAAGTCTTGGGTTCTAACCTGTTGCCT (site TGAATGTCTAG)	0.0411
TGAACTCCTTGGGTTCTAACCTGTTGCCT (site GTAACTCCTAG)	0.118
TGAACTCCTTGGGTTCTAACCTGTTGCCT (site TGAACTCCTAG)	0.122
TGACATTCTTGGGTTCTAACCTGTTGCTT (site GGACATTCTAA)	0.139
TGACATTCTTGGGTTCTAACCTGTTGCTT (site TGACATTCTAA)	0.13
TGAGACACTTGGGTTCTAACCTGTTGCTG (site TGACACACTCA)	0.0729
TGAGACACTTGGGTTCTAACCTGTTGCTG (site TGAGACACTCA)	2.68
TGAGACTCTTGGGTTCTAACCTGTTGCCT (site TGAGACTCTAG)	2.2
TGAGACTCTTGGGTTCTAACCTGTTGCCT (site TGCGACTCTAG)	0.0734

Sequence	recombinant barcode read abundance (log10)
TGAGACTCTTGGGTTCTAACCTGTTGCCT (site TGGGACTCTAG)	0.198
TGAGACTCTTGGGTTCTAACCTGTTGCCT (site TGTGACTCTAG)	0.463
TGAGCTACTTGGGTTCTAACCTGTTGCAC (site TGAGCTACTGT)	1.16
TGAGCTACTTGGGTTCTAACCTGTTGCAC (site TGTGCGACTGT)	0.0102
TGAGGATCTTGGGTTCTAACCTGTTGCCT (site TGAGGATCTAG)	0.99
TGAGGATCTTGGGTTCTAACCTGTTGCCT (site TGAGGCACTAG)	0.503
TGAGGGACTTGGGTTCTAACCTGTTGCCT (site CTCATAGCTTC)	0.0546
TGAGGGACTTGGGTTCTAACCTGTTGCCT (site TGAGGGACTAG)	1.9
TGAGTCCCTTGGGTTCTAACCTGTTGCTT (site TGAGTACCTAA)	0.0411
TGAGTCCCTTGGGTTCTAACCTGTTGCTT (site TGAGTCCCTAA)	1.67
TGAGTCCCTTGGGTTCTAACCTGTTGCTT (site TGAGTGCCTAA)	0.0566
TGAGTCCCTTGGGTTCTAACCTGTTGCTT (site TGAGTTCCTAA)	0.125
TGAGTGCCTTGGGTTCTAACCTGTTGCTT (site TGAGTACCTAA)	0.682
TGAGTGCCTTGGGTTCTAACCTGTTGCTT (site TGAGTCCCTAA)	0.116
TGAGTGCCTTGGGTTCTAACCTGTTGCTT (site TGAGTGCCTAA)	1.1
TGAGTGCCTTGGGTTCTAACCTGTTGCTT (site TGAGTTCCTAA)	0.0622
TGATCCTCTTGGGTTCTAACCTGTTGCTA (site AGGTCCTCTTA)	0.0555
TGATCCTCTTGGGTTCTAACCTGTTGCTA (site TGATCCTCTTA)	0.513
TGCACTCCTTGGGTTCTAACCTGTTGCCT (site TACAGTCCTAG)	0.0234
TGCACTCCTTGGGTTCTAACCTGTTGCCT (site TGCACTCCTAG)	0.0424
